Molecular target: human GLP1R (hGLP1R) (Homo sapiens, UniProt P43220)
Test: Human GLP1R cAMP agonist assay (GloSensor cAMP Assay)
Format: cell-based
Details: HEK293-SNAP-hGLP1R-GloSensor cells
Method: Compounds of formula (I) according to the invention were tested in the following cellular assays that measure the intracellular cAMP concentration, beta-arrestin recruitment and receptor internalization. The cAMP is generated by the activation of GLP1R. The extent to which the GLP1R is internalized into the cell and away from the plasma membrane following activation is also shown in Table 2. EC50 for each assay is defined as the concentration of the compound that leads to half of the maximum response (after baseline correction). Emax is defined as the maximum response observed for the test compound, normalized to the maximum response observed for the endogenous ligand (GLP1(7-36)) to GLP1R.
Human GLP1R cAMP Agonist Assay
The agonist activity of compounds was determined using the GloSensor™ cAMP Assay (Promega Corp.), which measures changes in the intracellular concentration of cAMP after ligand activation of GPCRs. The assay uses a biosensor encoded by pGloSensor™-22F cAMP plasmid (Promega, cat #E2301) with cAMP binding domains fused to a mutant form of Photinus pyralis luciferase. Binding to cAMP causes conformational changes that promote large increases in light output, which can be measured by a luminescence detector. HEK293-SNAP-hGLP1R-GloSensor cells stably overexpressing the human GLP1 receptor (hGLP1R) and pGloSensor™-22F were seeded in white 384-well poly-D-Lysine coated plates (Greiner Bio One, cat #781945) in CO2-independent media (Gibco cat #18045-088 with 1.0% FBS, 2 mM L-glutamine, penicillin and streptomycin) and incubated overnight at 37° C., 5% CO2 with humidity. The assay was started the following morning by adding an equal volume of CO2-independent media containing 4% v/v dilution of the GloSensor substrate (Promega, cat #E1291) to all wells. The cell plate was incubated at rt for 2 h in the dark. The Biomek 7 (Beckman Coulter) instrument was used for the liquid handling steps. To generate duplicate dose response curves, 3-fold serially diluted compounds were added in to the cell assay plate to a final volume of 60 μL with final concentrations ranging from 30 μM through 0.06 μM in CO2-independent media containing 0.1% BSA, 0.5 mM IBMX and 0.4% DMSO. In the same plate and assay buffer as the tested compounds, were EC100 control wells containing GLP1 (7-36) peptide (Bachem, cat #H-6795) at a final concentration of 2 nM and also EC0 control wells containing no peptide. This plate was incubated at rt in the dark for 12 min after adding the compounds to the cells. Luminescence was then measured with an Envision 2104 Multilabel reader with “TRF Light Unit, 337 nm” (PerkinElmer) using the Ultra-Sensitive protocol setting “384-well US luminescence detector” with the 384-well luminescence aperture, 0.1 seconds per well. cAMP activity was calculated as percent of the GLP1 (7-36) EC100 control wells: [(sample signal−mean EC0 signal)/(mean EC100 of GLP1 (7-36) signal−mean EC0 signal)}*100. Curve fitting for EC50 determinations was performed in the Helios module of the software package DAVID. The 4-parameter logistic model, Hill slope was used: y=Ainf+(A0−Ainf)/(1+(x/AC50)^Hill Slope) where y is the functional response; x is the compound concentration; A0 is the minimum value (at 0 dose); Ainf is the maximum value (at infinite dose); AC50 corresponds to the point of inflection (i.e. the point on the sigmoid shaped curve halfway between A0 and Ainf). The EC50 value was represented by the AC50 value calculated from Helios in μM. Emax is the maximal activity detected within the concentration range, derived from the fitted curve.
327 μL of Opti-MEM medium (Gibco, cat #31985-062) were mixed with 12 μL of FuGENE® HD (Promega, cat #E2311) and incubated at rt for 5 min. Then 8.2 μL (4 μg, 0.485 μg/μL solution) of pSNAP-hGLP1R plasmid (Cisbio, cat #PSNAP-GLP1) encoding human GLP1R (NCBI Reference Sequence: NM_002062.3) fused with Cisbio's SNAP tag was added in to the Fugene HD/Opti-MEM mix, and incubated at rt for 20 min. […]

Sequence of human GLP1R (hGLP1R) (P43220 24-463): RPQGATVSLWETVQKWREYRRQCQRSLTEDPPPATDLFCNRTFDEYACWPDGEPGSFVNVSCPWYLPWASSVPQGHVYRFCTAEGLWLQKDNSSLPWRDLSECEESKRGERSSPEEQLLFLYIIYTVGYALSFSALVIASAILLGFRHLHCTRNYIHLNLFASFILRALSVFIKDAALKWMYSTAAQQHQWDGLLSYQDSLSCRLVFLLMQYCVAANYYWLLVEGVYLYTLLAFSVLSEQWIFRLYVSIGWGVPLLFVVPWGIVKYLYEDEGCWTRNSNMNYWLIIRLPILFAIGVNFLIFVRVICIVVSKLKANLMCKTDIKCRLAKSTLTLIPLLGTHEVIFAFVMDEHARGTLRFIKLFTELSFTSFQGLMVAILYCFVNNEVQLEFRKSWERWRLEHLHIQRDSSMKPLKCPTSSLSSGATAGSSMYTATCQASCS

`Cc1c(-c2ccc(C(=O)O)o2)nc(CN2CCC(c3cccc4c3O[C@@](C)(c3ccc(Cl)cc3F)O4)CC2)n1C[C@@H]1CCO1` [Compound C-24, 5-(2-((4-((S)-2-(4-chloro-2-fluorophenyl)-2-methylbenzo[d][1,3]dioxol-4-yl)piperidin-1-yl)methyl)-5-methyl-1-(((S)-oxetan-2-yl)methyl)-1H-imidazol-4-yl)furan-2-carboxylic acid] was tested, and the Emax (cAMP activity as percent of GLP1 (7-36) EC100 control) was 113% and the EC50 (intracellular cAMP, 12 min at rt) was 0.102 nM.
